Experimental data as given in patent publication US11208416B2, “Selective inhibitors of protein arginine methytransterase 5 (PRMT5)” (Prelude Therapeutics, Incorporated, priority 2017, dated 2021).

Columns and labels:
[1] = target: PRMT5/MEP50 complex (Homo sapiens (Human), UniProt O14744); assay: Biochemical assay, PRMT5/MEP50 methylation of histone H2A with 3H-SAM; details: histone H2A 5 μM, PRMT5/MEP50 5 nM
Procedure: Biochemical Assay Protocol
Compounds were solubilized and 3-fold diluted in 100% DMSO. […] Standard reactions were performed in a total volume of […] assay buffer, with histone H2A (5 μM final) as substrate. To this was added the PRMT5/MEP50 complex diluted to provide a final assay concentration of 5 nM and the compounds were allowed to preincubate for 15 to 20 minutes at room temperature. The reaction was initiated by adding S-[3H-methyl]-adenosyl-L-methionine (PerkinElmer) to final concentration of […]. Following a 60 minutes incubation at 30° C., the reaction was stopped by adding 100 μL of 20% TCA. Each reaction was spotted onto filter plate (MultiScreen FB Filter Plate, Millipore), and washed 5 times with PBS buffer, Scintillation fluid was added to the filter plate and read in a scintillation counter. IC50 values were determined by fitting the data to the standard 4 parameters with Hill Slope using GraphPad Prism software.

[2] = system: Symmetric Di-Methyl Arginine (sDMA); assay: Western blot for sDMA marks in Granta cells (enzyme inhibition IC50); assay type: cell-based; details: Homo sapiens, 72 h; Granta-519 cell line, 3 days
[3] = system: Granta-519 cells; assay: Cell proliferation assay on Granta-519 cells (CCK-8); assay type: cell-based; details: Homo sapiens, 240 h; Granta-519 cell line, day 10; read-out: Prolif. IC50
Procedure: Cell Proliferation Assay to Determine IC50 on Granta-519 Cells
Granta-519 cells were maintained in PRMI 1640 (Corning Cellgro, Catalog #: 10-040-CV) medium supplemented with 10% v/v FBS (GE Healthcare, Catalog #: SH30910.03). Compounds were dissolved in DMSO to make 10 mM stocks and stored at −20° C. Nine-point, 3-fold serial dilutions were made with DMSO with top concentration at 1 mM (working stocks).
On day of experiment, compound working stocks were further diluted at 1:50 with fresh medium in 96 well plate, and 10 μL of diluted drugs were added to a new 96 well plate for proliferation assay. Cells growing at exponential phase were spun down at 1500 rpm for 4 min and resuspend in fresh medium to reach a density of 0.5×10^6 cells/ml. 200 ul of cells were added to 96 well plate containing diluted drugs and incubated for 3 days. DMSO was used a vehicle control.
One day 3, 10 μL of Cell Counting Kit-8 (CCK-8, Jojindo, CK04-13) solution was added to a new 96 well plate. […] Plates were incubated in CO2 incubator for 2 hours and OD450 values were measured with a microplate reader (iMark microplate reader, Bio-Rad). […]
Percentage of viable cells, relative to DMSO vehicle control, were calculated and plotted in Graphpad Prism ([Inhibitor] vs. normalized response−Variable slope) to determine proliferation IC50 values on day 10.

[4] = system: sDMA; assay: sDMA levels in tumor samples of Granta-519 mouse xenograft (Western blot); assay type: in vivo; details: 50 mg/kg orally QD
Procedure: Granta-519 cells was maintained in DMEM medium supplemented with 10% fetal bovine serum and 2 mM L-Glutamine at 37° C. in an atmosphere of 5% CO2 in air. Cells in exponential growth phase were harvested and 1×10^7 cells in 0.1 mL of PBS with Matrigel (1:1) were injected subcutaneously at the right lower flank region of each mouse for tumor development. The treatments were started when the mean tumor size reaches approximately 300-400 mm^3. […] Example 47 or vehicle (0.5% Na CMC+0.5% Tween80, suspension) were administered orally (QD for Example 47, QD for vehicle) at a dose of 30 mg/kg and 50 mg/kg for 19 and 16 days, respectively. Body weights and tumor size were measured every 3 to 4 days after randomization. Animals were euthanized 12 hours after last dosing, and blood and tumor samples were collected for analysis.
To measure sDMA levels in tumor samples, tumors from each mouse were weighted and homogenized in RIPA buffer supplemented with protease inhibitor (cOmplete™ EDTA-free Protease Inhibitor Cocktail, Roche). Lysate were centrifuged at 14,000 rpm for 30 min at 4° C. to remove debris. Total protein concentrations of lysate were determined by BCA assay (ThermoFisher Scientific, Catalog #: 23225). Equal amount of total proteins from each tumor were separated on SDS-PAGE gel, and sDMA levels were determined by WB as described previously.

Sequence of PRMT5/MEP50 complex (O14744 whole entry): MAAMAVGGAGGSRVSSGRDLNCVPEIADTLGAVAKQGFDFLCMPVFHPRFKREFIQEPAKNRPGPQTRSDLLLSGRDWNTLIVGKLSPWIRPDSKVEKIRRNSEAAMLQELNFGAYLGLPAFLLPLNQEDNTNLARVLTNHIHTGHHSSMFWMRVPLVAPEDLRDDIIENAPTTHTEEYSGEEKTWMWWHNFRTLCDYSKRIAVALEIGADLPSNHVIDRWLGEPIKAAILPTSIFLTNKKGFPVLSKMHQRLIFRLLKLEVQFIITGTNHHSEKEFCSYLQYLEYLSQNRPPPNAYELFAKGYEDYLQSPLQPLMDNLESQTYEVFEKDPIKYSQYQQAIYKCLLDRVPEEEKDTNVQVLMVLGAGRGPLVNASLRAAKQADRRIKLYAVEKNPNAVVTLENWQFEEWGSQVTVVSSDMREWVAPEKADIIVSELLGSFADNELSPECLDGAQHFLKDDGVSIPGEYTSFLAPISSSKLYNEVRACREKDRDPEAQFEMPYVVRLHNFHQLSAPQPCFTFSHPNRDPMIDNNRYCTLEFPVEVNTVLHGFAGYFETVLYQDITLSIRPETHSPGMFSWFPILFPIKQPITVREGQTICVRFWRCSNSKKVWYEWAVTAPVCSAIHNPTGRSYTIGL
Sequence of PRMT5/MEP50 complex (Q9BQA1 whole entry partner): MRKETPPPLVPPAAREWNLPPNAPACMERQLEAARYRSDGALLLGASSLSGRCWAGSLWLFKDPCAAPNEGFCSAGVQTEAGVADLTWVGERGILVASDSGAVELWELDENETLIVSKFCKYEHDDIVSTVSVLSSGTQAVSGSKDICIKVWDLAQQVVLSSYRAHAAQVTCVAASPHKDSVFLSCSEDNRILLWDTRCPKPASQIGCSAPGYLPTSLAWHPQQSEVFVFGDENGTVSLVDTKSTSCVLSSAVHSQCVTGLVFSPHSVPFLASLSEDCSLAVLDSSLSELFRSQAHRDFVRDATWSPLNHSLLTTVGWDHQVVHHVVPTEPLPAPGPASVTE

Row | IC50 [1] [nM] | IC50 [2] [nM] | SMILES | IC50 [3] [nM] | sDMA level in tumor [4]
1 | 900 | 1000 | CSC[C@H]1O[C@@H](n2ccc3c(N)ncnc32)[C@H](O)[C@]1(C)O [Example 17, (2S,3S,4R,5R)-5-(4-amino-7H-pyrrolo[2,3-d]pyrimidin-7-yl)-3-methyl-2-((methylthio)methyl)tetrahydrofuran-3,4-diol] | 200000 | 
2 |  |  | C[C@@]1(O)[C@@H]([C@H](O)c2ccc(Cl)c(Cl)c2)O[C@@H](n2ccc3c(N)ncnc32)[C@@H]1O [Example 47, (2R,3S,4R,5R)-5-(4-amino-7H-pyrrolo[2,3-d]pyrimidin-7-yl)-2-((R)-(3,4-dichlorophenyl)(hydroxy)methyl)-3-methyltetrahydrofuran-3,4-diol] |  | no detectable sDMA
3 | 1610 |  | Cc1ncnc2c1ccn2[C@@H]1O[C@H](Cc2ccc(Cl)cc2CO)[C@@](C)(O)[C@H]1O [Example 64, (2R,3S,4R,5R)-2-[[4-chloro-2-(hydroxymethyl)phenyl]methyl]-3-methyl-5-(4-methylpyrrolo[2,3-d]pyrimidin-7-yl)tetrahydrofuran-3,4-diol] |  | 
